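48-hour exposure; five concentrations; linearly interpolated endpoints. GI50 is the concentration that inhibits growth by half.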 Calls of active or inactive are those of the source. Cut-off read from the data, not from the text of the source: active = GI50 up to about 1.1 µM and inactive = higher.
Key:
Assay in all cases: DTP human tumour cell line panel, 48 h
A498 = test system: A498
A549 = test system: A549
COLO 205 = test system: COLO 205
HCT-116 = test system: HCT-116
HOP-62 = test system: HOP-62
HOP-92 = test system: HOP-92
IGROV-1 = test system: IGROV-1
LOX IMVI = test system: LOX IMVI
MCF7 = test system: MCF7
MDA-MB-231 = test system: MDA-MB-231
MOLT-4 = test system: MOLT-4
NCI-H226 = test system: NCI-H226
PC-3 = test system: PC-3
RPMI-8226 = test system: RPMI-8226
SF-268 = test system: SF-268
SF-539 = test system: SF-539
SK-MEL-5 = test system: SK-MEL-5
SN12C = test system: SN12C
SNB-19 = test system: SNB-19
U-251 = test system: U-251

SMILES | GI50 (A498) | GI50 (A549) | GI50 (COLO 205) | GI50 (HCT-116) | GI50 (HOP-62) | GI50 (HOP-92) | GI50 (IGROV-1) | GI50 (LOX IMVI) | GI50 (MCF7) | GI50 (MDA-MB-231) | GI50 (MOLT-4) | GI50 (NCI-H226) | GI50 (PC-3) | GI50 (RPMI-8226) | GI50 (SF-268) | GI50 (SF-539) | GI50 (SK-MEL-5) | GI50 (SN12C) | GI50 (SNB-19) | GI50 (U-251)
CC(C)=CCc1c(O)cc2oc(-c3ccc(O)cc3O)cc(=O)c2c1O | 44.2 µM (inactive) | 28.5 µM (inactive) | 28.2 µM (inactive) | 25.1 µM (inactive) | 33.3 µM (inactive) | 32.4 µM (inactive) | 33.5 µM (inactive) | 9.53 µM (inactive) | 24.4 µM (inactive) | 26.4 µM (inactive) | 1.95 µM (inactive) | 57 µM (inactive) | 34.7 µM (inactive) | 17.4 µM (inactive) | 38.8 µM (inactive) | 27.4 µM (inactive) | 19.9 µM (inactive) | 28.8 µM (inactive) | 40.6 µM (inactive) | 32.2 µM (inactive)
CC1(C)OC2C(CO)OC(n3cnc(N)nc3=O)C2O1 (stereo not given) | > 100 µM (inactive) | > 100 µM (inactive) | > 100 µM (inactive) | > 100 µM (inactive) | > 100 µM (inactive) | > 100 µM (inactive) | > 100 µM (inactive) | > 100 µM (inactive) | > 100 µM (inactive) | > 100 µM (inactive) | > 100 µM (inactive) | > 100 µM (inactive) | > 100 µM (inactive) | > 100 µM (inactive) | > 100 µM (inactive) | > 100 µM (inactive) | > 100 µM (inactive) | > 100 µM (inactive) | > 100 µM (inactive) | > 100 µM (inactive)
CC/C(Cl)=N\OC(=O)Nc1ccc(F)c([N+](=O)[O-])c1 | 19.9 µM (inactive) | 20.5 µM (inactive) | 2.78 µM (inactive) | 7 µM (inactive) | 19.6 µM (inactive) | 5.14 µM (inactive) | 17.9 µM (inactive) | 15.6 µM (inactive) | 8.81 µM (inactive) | 18.2 µM (inactive) | 2.72 µM (inactive) | 33.3 µM (inactive) | 17.3 µM (inactive) | 2.94 µM (inactive) | 16.9 µM (inactive) | 5.32 µM (inactive) | 12.4 µM (inactive) | 17.5 µM (inactive) | 17.5 µM (inactive) | 21.5 µM (inactive)
Cc1ncc(C/N=C/c2ccc(Cl)cc2)c(N)n1 | > 100 µM (inactive) | > 100 µM (inactive) | > 100 µM (inactive) | > 100 µM (inactive) | > 100 µM (inactive) | > 100 µM (inactive) | > 100 µM (inactive) | > 100 µM (inactive) | > 100 µM (inactive) | > 100 µM (inactive) | > 100 µM (inactive) | > 100 µM (inactive) | > 100 µM (inactive) | > 100 µM (inactive) | > 100 µM (inactive) | > 100 µM (inactive) | > 100 µM (inactive) | > 100 µM (inactive) | > 100 µM (inactive) | > 100 µM (inactive)
C[N+]12CCCCC1C(CN1C(=O)Cc3c4ccccc4c(c4ccccc34)CC1=O)CCC2 (stereo not given) | > 100 µM (inactive) | > 100 µM (inactive) | > 100 µM (inactive) | > 100 µM (inactive) | > 100 µM (inactive) | > 100 µM (inactive) | > 100 µM (inactive) | > 100 µM (inactive) | > 100 µM (inactive) | > 100 µM (inactive) | > 100 µM (inactive) | > 100 µM (inactive) | > 100 µM (inactive) | > 100 µM (inactive) | > 100 µM (inactive) | > 100 µM (inactive) | > 100 µM (inactive) | > 100 µM (inactive) | > 100 µM (inactive) | > 100 µM (inactive)
NC(Cc1c[nH]c2cc([N+](=O)[O-])ccc12)C(=O)O (stereo not given) | > 100 µM (inactive) | > 100 µM (inactive) | > 100 µM (inactive) | > 100 µM (inactive) | > 100 µM (inactive) | 67.6 µM (inactive) | 57.4 µM (inactive) | > 100 µM (inactive) | > 100 µM (inactive) | > 100 µM (inactive) | > 100 µM (inactive) | 33.7 µM (inactive) | > 100 µM (inactive) | > 100 µM (inactive) | > 100 µM (inactive) | > 100 µM (inactive) | > 100 µM (inactive) | > 100 µM (inactive) | > 100 µM (inactive) | > 100 µM (inactive)
CC1=NN(c2ccccc2)C(=O)C1/N=N/c1ccc([As](=O)(O)O)c(O)c1 (stereo not given) | > 100 µM (inactive) | > 100 µM (inactive) | > 100 µM (inactive) | > 100 µM (inactive) | > 100 µM (inactive) | > 100 µM (inactive) | > 100 µM (inactive) | > 100 µM (inactive) | > 100 µM (inactive) | > 100 µM (inactive) | > 100 µM (inactive) | > 100 µM (inactive) | > 100 µM (inactive) | 57 µM (inactive) | > 100 µM (inactive) | > 100 µM (inactive) | > 100 µM (inactive) | > 100 µM (inactive) | > 100 µM (inactive) | > 100 µM (inactive)
CC(=O)/C=C/C=C(\C)CC/C=C(\C)CC(C)C | 22 µM (inactive) | 34 µM (inactive) | 20.2 µM (inactive) | 21.8 µM (inactive) | 41.3 µM (inactive) | 0.558 µM (active) | 28.9 µM (inactive) | 18.3 µM (inactive) | 22.8 µM (inactive) | 40.9 µM (inactive) | 18.1 µM (inactive) | 26.9 µM (inactive) | 38.2 µM (inactive) | 17.1 µM (inactive) | 39.7 µM (inactive) | 21.7 µM (inactive) | 18.5 µM (inactive) | 31.4 µM (inactive) | 42.4 µM (inactive) | 25.4 µM (inactive)
O=C1N/C(=N/N=C/c2ccccc2)N/C1=C\c1cccs1 | 13 µM (inactive) | 25.6 µM (inactive) | 8.13 µM (inactive) | 17.3 µM (inactive) | 18.3 µM (inactive) | 15.8 µM (inactive) | 14.5 µM (inactive) | 8.34 µM (inactive) | 9.84 µM (inactive) | 18.6 µM (inactive) | 27.5 µM (inactive) | 10.6 µM (inactive) | 10 µM (inactive) | 16.8 µM (inactive) | 9.89 µM (inactive) | 10.4 µM (inactive) | 7.53 µM (inactive) | 19.1 µM (inactive) | 21.9 µM (inactive) | 15.6 µM (inactive)
Nc1nc(=O)c2c([nH]1)NCC(CCNc1ccc(C(=O)O)cc1)N2 (stereo not given) | > 100 µM (inactive) | > 100 µM (inactive) | > 100 µM (inactive) | > 100 µM (inactive) | > 100 µM (inactive) | > 100 µM (inactive) | > 100 µM (inactive) | > 100 µM (inactive) | > 100 µM (inactive) | > 100 µM (inactive) | > 100 µM (inactive) | > 100 µM (inactive) | > 100 µM (inactive) | > 100 µM (inactive) | > 100 µM (inactive) | > 100 µM (inactive) | > 100 µM (inactive) | > 100 µM (inactive) | > 100 µM (inactive) | > 100 µM (inactive)

Reference: ChEMBL document CHEMBL1201862, “PubChem BioAssay data set” (2004)
